“And” between values parts separate entries of the source, which are not always exact repeats. Equal entries are not always repeated. Where two headings read alike, the source gives them in different places. Square brackets hold non-standard residues; d marks the D form. Peptide text beside a SMILES is read from it. * marks the point of attachment. X1 = C[N+](C)(C)[C@@H](Cc1ccccc1)C(=O)*; NMe2Phe = CN(C)[C@@H](Cc1ccccc1)C(=O)*; X4 = CCN(CC)[C@@H](Cc1ccccc1)C(=O)*; NMeF = CN[C@@H](Cc1ccccc1)C(=O)O; Cha = N[C@@H](CC1CCCCC1)C(=O)O; dOrn = NCCC[C@@H](N)C(=O)O
Key:
motilin receptor = molecular target: T1, motilin receptor (Oryctolagus cuniculus, UniProt G1T803); assay: Determination of motilin receptor binding affinity (displacement of [125I-Tyr7, Nle13]motilin(porcine)); design: species or system rabbit
T1 construct: from tissue; host or cells: rabbit antral smooth muscle membranes
Protocol: The motilin receptor binding affinity of the peptides of this invention was determined by using the general procedure of Bormans, Peelers and Vantrappen, Regul. […] Fitting was performed using the iterative least-squares procedure of the SAS-software package (SAS Institute, Inc., Cary, N.C., USA).

[1] = molecular target: segments of rabbit duodenum (Oryctolagus cuniculus, UniProt G1T803); assay: Rabbit duodenal smooth muscle strip tissue bath assay; assay type: cell-based; conditions: negative logarithm of the dose giving 50% of the maximal response to motilin; isotonic contraction of rabbit duodenum segments
Protocol: The contractile response of segments of rabbit duodenum was determined isotonically in the tissue bath according to the procedure of Depoortere et at., J. Gastrointestinal Motility, 1, 150-159 (1989). The experimental protocol consisted of an equilibration period of 1 hour; a challenge with 10^-4 M acetylcholine followed by a wash-out period; a cumulative dose-response curve of a compound with, at the end, the addition of 10^-7 M motilin; and finally 10^-4 M acetylcholine. If the final response to 10^-4 M acetylcholine differed by more than 5% from the initial response, the results were discarded. The compounds were tested in the concentration range 10^-11 to 10^-4 M. The point corresponding to 50% of the maximal response to motilin (Emax) was determined by fitting the equation E=Emax (1+EC50 /[L]) through the data points. […] The dose giving 50% of the response is expressed using its negative logarithm (pEC50).

[2] = negative logarithm of the concentration displacing 50% of [125I-Tyr7, Nle13]motilin(porcine) from rabbit antral smooth muscle membranes, read-out: pIC50 (converted)

Chain of segments of rabbit duodenum (G1T803 1-400): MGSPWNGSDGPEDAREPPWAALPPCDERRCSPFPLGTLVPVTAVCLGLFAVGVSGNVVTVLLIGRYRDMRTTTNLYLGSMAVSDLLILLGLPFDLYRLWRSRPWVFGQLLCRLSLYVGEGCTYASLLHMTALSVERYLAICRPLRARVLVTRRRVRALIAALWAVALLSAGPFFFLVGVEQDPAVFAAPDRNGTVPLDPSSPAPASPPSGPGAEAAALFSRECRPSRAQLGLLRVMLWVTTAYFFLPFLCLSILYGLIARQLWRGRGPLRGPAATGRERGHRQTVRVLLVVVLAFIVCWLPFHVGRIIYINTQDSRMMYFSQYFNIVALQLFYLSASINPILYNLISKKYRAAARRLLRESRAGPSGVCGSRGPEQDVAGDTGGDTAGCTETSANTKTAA
T1 sequence (G1T803 1-400): as above

IC50 (motilin receptor; [2])	pEC50 [1]	IC50 (motilin receptor; pIC50, negative logarithm of the concentration displacing 50% of [125I-Tyr7, Nle13]motilin(porcine) from rabbit antral smooth muscle membranes)	Compound
5.62 nM	7.06		CC[C@H](C)[C@H](NC(=O)[C@@H]1CCCN1C(=O)[C@@H](NC(=O)[C@@H](N)Cc1ccccc1)C(C)C)C(=O)N[C@@H](Cc1ccccc1)C(=O)N[C@H](C(=O)N[C@@H](Cc1ccc(O)cc1)C(=O)NCC(=O)N[C@@H](CCC(=O)O)C(=O)N[C@@H](CC(C)C)C(=O)N[C@@H](CCC(N)=O)C(=O)N[C@H](CCC(N)=O)C(=O)N[C@@H](CC(C)C)C(=O)N[C@@H](CCC(N)=O)C(=O)O)[C@@H](C)O [[D-Gln^12, Leu^13]pMOT(1-14)] (H-FVPIFTYGELQ[dQ]LQ-OH)
	8.07	0.776 nM	CC[C@H](C)[C@H](NC(=O)[C@H](C)NC(=O)[C@@H](NC(=O)[C@H](Cc1ccccc1)NC)C(C)C)C(=O)N[C@@H](Cc1ccccc1)C(=O)N[C@H](C(=O)N[C@@H](Cc1ccc(O)cc1)C(=O)NCC(=O)N[C@@H](CCC(=O)O)C(=O)N[C@@H](CC(C)C)C(=O)N[C@@H](CCC(N)=O)C(=O)N[C@H](CCCNC(=N)N)C(=O)N[C@@H](CC(C)C)C(=O)N[C@H](CCC(N)=O)C(N)=O)[C@@H](C)O (H-[NMeF]VAIFTYGELQ[dR]L[dQ]-NH2)
1.95 nM	7.31		CC[C@H](C)[C@H](NC(=O)[C@H](C)NC(=O)[C@@H](NC(=O)[C@H](Cc1ccccc1)[N+](C)(C)C)C(C)C)C(=O)N[C@@H](Cc1ccccc1)C(=O)N[C@H](C(=O)N[C@@H](Cc1ccc(O)cc1)C(=O)NCC(=O)N[C@@H](CCC(=O)O)C(=O)N[C@@H](CC(C)C)C(=O)N[C@@H](C)C(=O)N[C@H](CCCNC(=N)N)C(=O)N[C@@H](CC(C)C)C(=O)N[C@@H](CCC(N)=O)C(N)=O)[C@@H](C)O (X1-VAIFTYGELA[dR]LQ-NH2)
3.89 nM	7.54		CC[C@H](C)[C@H](NC(=O)[C@@H]1CCCN1C(=O)[C@@H](NC(=O)[C@H](Cc1ccccc1)N(CC)CC)C(C)C)C(=O)N[C@@H](Cc1ccccc1)C(=O)N[C@H](C(=O)N[C@@H](Cc1ccc(O)cc1)C(=O)NCC(=O)N[C@@H](CCC(=O)O)C(=O)N[C@@H](CC(C)C)C(=O)N[C@@H](CCC(N)=O)C(=O)N[C@@H](CCCNC(=N)N)C(=O)N[C@@H](CC(C)C)C(=O)N[C@@H](CCC(N)=O)C(N)=O)[C@@H](C)O [[Et2 Phe^1, Leu^13]pMOT(1-14) amide] (X4-VPIFTYGELQRLQ-NH2)
3.55 nM and 2.14 nM	7.52		CC[C@H](C)[C@H](NC(=O)[C@@H]1CCCN1C(=O)[C@@H](NC(=O)[C@H](Cc1ccccc1)[N+](C)(C)C)C(C)C)C(=O)N[C@@H](Cc1ccccc1)C(=O)N[C@H](C(=O)N[C@@H](Cc1ccc(O)cc1)C(=O)NCC(=O)N[C@@H](CCC(=O)O)C(=O)N[C@@H](CC(C)C)C(=O)N[C@@H](CCC(N)=O)C(=O)N[C@H](CCCNC(=N)N)C(=O)N[C@@H](CC(C)C)C(=O)N[C@@H](CCC(N)=O)C(=O)O)[C@@H](C)O (X1-VPIFTYGELQ[dR]LQ-OH)
4.27 nM	6.83		CC[C@H](C)[C@H](NC(=O)[C@@H]1CCCN1C(=O)[C@@H](NC(=O)[C@@H](N)Cc1ccccc1)C(C)C)C(=O)N[C@@H](Cc1ccccc1)C(=O)N[C@H](C(=O)N[C@@H](Cc1ccc(O)cc1)C(=O)NCC(=O)N[C@@H](CCC(=O)O)C(=O)N[C@@H](CC(C)C)C(=O)N[C@@H](CCC(N)=O)C(=O)N[C@H](CCCN)C(=O)N[C@@H](CC(C)C)C(=O)N[C@@H](CCC(N)=O)C(=O)O)[C@@H](C)O [[D-Orn^12, Leu^13]pMOT(1-14)] (H-FVPIFTYGELQ[dOrn]LQ-OH)
2.14 nM	7.71		CC[C@H](C)[C@H](NC(=O)[C@H](C)NC(=O)[C@@H](NC(=O)[C@@H](N)Cc1ccccc1)C(C)C)C(=O)N[C@@H](Cc1ccccc1)C(=O)N[C@H](C(=O)N[C@@H](Cc1ccc(O)cc1)C(=O)NCC(=O)N[C@@H](CCC(=O)O)C(=O)N[C@@H](CC(C)C)C(=O)N[C@@H](CCC(N)=O)C(=O)N[C@H](CCCNC(=N)N)C(=O)N[C@@H](CC(C)C)C(=O)N[C@@H](CCC(N)=O)C(=O)O)[C@@H](C)O [[Ala^3, D-Arg^ 12, Leu^13]pMOT(1-14)] (H-FVAIFTYGELQ[dR]LQ-OH)
7.59 nM	6.82		CC[C@H](C)[C@H](NC(=O)[C@@H]1CCCN1C(=O)[C@@H](NC(=O)[C@@H](N)Cc1ccccc1)C(C)C)C(=O)N[C@@H](Cc1ccccc1)C(=O)N[C@H](C(=O)N[C@@H](Cc1ccc(O)cc1)C(=O)NCC(=O)N[C@@H](CCC(=O)O)C(=O)N[C@@H](CC(C)C)C(=O)N[C@@H](CCC(N)=O)C(=O)N[C@H](CC(N)=O)C(=O)N[C@@H](CC(C)C)C(=O)N[C@@H](CCC(N)=O)C(=O)O)[C@@H](C)O [[D-Asn^12, Leu^13]pMOT(1-14)] (H-FVPIFTYGELQ[dN]LQ-OH)
1.95 nM	7.76		CC[C@H](C)[C@H](NC(=O)[C@@H]1CCCN1C(=O)[C@@H](NC(=O)[C@H](Cc1ccccc1)N(C)C)C(C)C)C(=O)N[C@@H](Cc1ccccc1)C(=O)N[C@H](C(=O)N[C@@H](Cc1ccc(O)cc1)C(=O)NCC(=O)N[C@@H](CCC(=O)O)C(=O)N[C@@H](CC(C)C)C(=O)N[C@@H](C)C(=O)N[C@H](CCCNC(=N)N)C(=O)N[C@@H](CC(C)C)C(=O)N[C@@H](CCC(N)=O)C(N)=O)[C@@H](C)O (NMe2Phe-VPIFTYGELA[dR]LQ-NH2)
	7.32		CC[C@H](C)[C@H](NC(=O)[C@H](C)NC(=O)[C@@H](NC(=O)[C@H](Cc1ccccc1)[N+](C)(C)C)C(C)C)C(=O)N[C@@H](Cc1ccccc1)C(=O)N[C@H](C(=O)N[C@@H](Cc1ccc(O)cc1)C(=O)NCC(=O)N[C@@H](CCC(=O)O)C(=O)N[C@@H](CC(C)C)C(=O)N[C@@H](CCC(N)=O)C(=O)N[C@H](CCCNC(=N)N)C(=O)N[C@@H](CC(C)C)C(=O)N[C@@H](CCC(N)=O)C(N)=O)[C@@H](C)O [[Me3 N^+ Phe^1, Ala^3, D-Arg^13, Leu^13 ]pMOT(1-14) amide] (X1-VAIFTYGELQ[dR]LQ-NH2)
6.76 nM	7.30		CC[C@H](C)[C@H](NC(=O)[C@@H]1CCCN1C(=O)[C@@H](NC(=O)[C@@H](N)Cc1ccccc1)C(C)C)C(=O)N[C@@H](CC1CCCCC1)C(=O)N[C@H](C(=O)N[C@@H](Cc1ccc(O)cc1)C(=O)NCC(=O)N[C@@H](CCC(=O)O)C(=O)N[C@@H](CC(C)C)C(=O)N[C@@H](CCC(N)=O)C(=O)N[C@H](CCCNC(=N)N)C(=O)N[C@@H](CC(C)C)C(=O)N[C@@H](CCC(N)=O)C(N)=O)[C@@H](C)O [H-Phe-Val-Pro-Ile-Cha-Thr-Tyr-Gly-Glu-Leu-Gln-D-Arg-Leu-Gln-NH2] (H-FVPI[Cha]TYGELQ[dR]LQ-NH2)
1.41 nM	7.20		CC[C@H](C)[C@H](NC(=O)[C@H](C)NC(=O)[C@@H](NC(=O)[C@H](Cc1ccccc1)[N+](C)(C)C)C(C)C)C(=O)N[C@@H](Cc1ccccc1)C(=O)N[C@H](C(=O)N[C@@H](Cc1ccc(O)cc1)C(=O)NCC(=O)N[C@@H](CCC(=O)O)C(=O)N[C@@H](CC(C)C)C(=O)N[C@@H](CCC(N)=O)C(=O)N[C@H](CCCNC(=N)N)C(=O)N[C@@H](CC(C)C)C(=O)N[C@H](CCC(N)=O)C(N)=O)[C@@H](C)O (X1-VAIFTYGELQ[dR]L[dQ]-NH2)
	7.57		CC[C@H](C)[C@H](NC(=O)[C@H](C)NC(=O)[C@@H](NC(=O)[C@H](Cc1ccccc1)[N+](C)(C)C)C(C)C)C(=O)N[C@@H](Cc1ccccc1)C(=O)N[C@H](C(=O)N[C@@H](Cc1ccc(O)cc1)C(=O)NCC(=O)N[C@@H](CCC(=O)O)C(=O)N[C@@H](CC(C)C)C(=O)N[C@@H](CCC(N)=O)C(=O)N[C@H](CCCNC(=N)N)C(=O)N[C@@H](CC(C)C)C(=O)N[C@@H](CCC(N)=O)C(N)=O)[C@@H](C)O [[Me3 N^+ Phe^1, Ala^3, D-Arg^12, Leu^13 pMOT(1-14) amide] (X1-VAIFTYGELQ[dR]LQ-NH2)
2.63 nM			CC[C@H](C)[C@H](NC(=O)[C@H](C)NC(=O)[C@@H](NC(=O)[C@H](Cc1ccccc1)[N+](C)(C)C)C(C)C)C(=O)N[C@@H](Cc1ccccc1)C(=O)N[C@H](C(=O)N[C@@H](Cc1ccc(O)cc1)C(=O)NCC(=O)N[C@@H](CCC(=O)O)C(=O)N[C@@H](CC(C)C)C(=O)N[C@@H](CCC(N)=O)C(=O)N[C@H](CCCNC(=N)N)C(=O)N[C@@H](CC(C)C)C(=O)N[C@@H](CCC(N)=O)C(N)=O)[C@@H](C)O (X1-VAIFTYGELQ[dR]LQ-NH2) [listing 1 of 2 here]
0.617 nM			CC[C@H](C)[C@H](NC(=O)[C@@H]1CCCN1C(=O)[C@@H](NC(=O)[C@H](Cc1ccccc1)NC)C(C)C)C(=O)N[C@@H](Cc1ccccc1)C(=O)N[C@H](C(=O)N[C@@H](Cc1ccc(O)cc1)C(=O)NCC(=O)N[C@@H](CCC(=O)O)C(=O)N[C@@H](CC(C)C)C(=O)N[C@@H](CCC(N)=O)C(=O)N[C@@H](CCCNC(=N)N)C(=O)N[C@@H](CC(C)C)C(=O)N[C@H](CCC(N)=O)C(N)=O)[C@@H](C)O (H-[NMeF]VPIFTYGELQRL[dQ]-NH2)
1.62 nM			CC[C@H](C)[C@H](NC(=O)[C@H](C)NC(=O)[C@@H](NC(=O)[C@H](Cc1ccccc1)[N+](C)(C)C)C(C)C)C(=O)N[C@@H](Cc1ccccc1)C(=O)N[C@H](C(=O)N[C@@H](Cc1ccc(O)cc1)C(=O)NCC(=O)N[C@@H](CCC(=O)O)C(=O)N[C@@H](CC(C)C)C(=O)N[C@@H](CCC(N)=O)C(=O)N[C@H](CCCNC(=N)N)C(=O)N[C@@H](CC(C)C)C(=O)N[C@@H](CCC(N)=O)C(N)=O)[C@@H](C)O (X1-VAIFTYGELQ[dR]LQ-NH2) [listing 2 of 2 here]

Reference: US5422341A, “Motilin-like polypeptides with gastrointestinal motor stimulating activity” (Ohmeda Pharmaceutical Products Division Inc., priority 1993, dated 1995)
